From patent US6613304B2, “Radiometal complexes of 2-pyrrolylthiones and their use as radiopharmaceuticals for imaging and therapy” (University of British Columbia, priority 2000, dated 2003)
“Also recorded” adds a separate entry of the source. Blank lines part the entries; values can stand above or below the compound they belong to.

Key:
[1] = Stability towards oxidation; assay type: physicochemical; settings: for stability towards oxidation: in solid state and in solution
[2] = cited from earlier work; for clearance relative to OIH: % of that of OIH
[3] = cited from earlier work
[4] = healthy subjects; cited from earlier work
[5] = Renal imaging: scintigraphic biodistribution of Tc-99m complexes in rats; assay type: in vivo, male Sprague and Dawley rats; settings: for scintigraphic image of the kidneys: one hour post injection, FIG. 5; for accumulation in the cortex: 1.5 min post injection, very fast linear accumulation
Procedure: A group of 3 male Sprague and Dawley rats were anaesthetised by intra-muscluar administration of a mixture of Ketamine Xylazine (1 ml/Kg). A 26 guage Butterfly was introduced into the lateral tail vein and filled with heparinised physiological saline. The animals were injected with the indicated radiopharmaceutical, in the minutes following the beginning of the acquisition.
Dose activities were measured in an Accucal 2001 dose calibrator Nuclear Pharmacy Inc. (Albuquerque, N. Mex., U.S.A). Scvintigraphic mages were recorded with a Starcam 4000i XRT Gamma camera General Electric (Saint Albans, UK) equipped with a parallel, medium energy, high resolution collimator. Image analysis was performed on a Genie PNR model nuclear medicine dedicated computer General Electric (Saint Albans, UK).
The camera was set to record a series of 32 images at 1 min intervals each, the animals were injected successively starting from animal A after the camera was started. All injections were finished within the first one and a half minute. Following each injection the catheter was flushed with 0.5 ml of physiological saline. Following this first acquisition a second dynamic acquisition was recorded at a rate of one image every 10 minutes. The animals woke up 90 min after injection at which time the study was terminated.
For analysis, the areas of interest were traced around the organs of interest (right and left kidneys for the first dynamic study; and heart, left kidney and bladder at image 60 min. post-injection on the second study) and the whole body of the rats. The result were expressed as counts per seconds or as percent of the whole body activity at a given time, and are presented in FIGS. 5-9.

stability towards oxidation [1]: stable towards oxidation
Compound: Bis(2,2′-dipyrrolylthionato) ^99g Tc]oxotechnetium [compound 6]

stability towards oxidation [1]: stable towards oxidation
Compound: Bis(p-methoxyphenyl-2-pyrrolylthionato) [^99g Tc]oxotechnetium [compound 7]

activity in the calyx area ([5]; 1 hour post-injection): significant activity in the calyx area | blood clearance (heart area used as a measure of blood activity) ([5]; 1 hour post-injection): more rapidly cleared | overall kidney uptake ([5]; 1 hour post-injection, left kidney only): highest activity
Compound: Tc-99m-dimercaptosuccinic acid [DMSA, reference compound]
steady level of renal uptake, of the activity administered [4]: ~30% | time after injection until which renal activity increases [4]: 6 to 8 h | scintigraphic image of the kidneys [5]: kidneys are well visualised | plasma protein binding [3]: almost completely bound to the proteins

accumulation in the cortex [5]: 20% | excretion rate as evaluated by measuring the activity found in the bladder ([5]; 1 hour post-injection): best excretion rate | detected radioactivity in the kidneys reaching a plateau ([5]; as compared to DMSA, FIGS. 6-8): reach a plateau more rapidly | accumulation in the cortex at plateau ([5]; plateau at about 35 min to 1 hour post injection): 22%
Compound: ^99mTcO-disulfo-di-2-pyrrolylthionate [compound 9]
scintigraphic image of the kidneys ([5]; listed as TcSL-11): better resolved the kidneys; also recorded: kidneys are well visualised

accumulation in the cortex [5]: 20% | excretion rate as evaluated by measuring the activity found in the bladder ([5]; 1 hour post-injection): best excretion rate
Compound: ^99mTcO-tetrasulfo-di-2-pyrrolylthionate [compound 10]

The next lines start with the compound.

Compound: COc1ccc(C(=S)c2ccc[nH]2)cc1OC [3,4-dimethoxyphenyl-2-pyrrolylthione, 3,4-Dimethoxyphenyl-2-pyrrolylthione]
stability at room temperature ([1]; atmospheric oxygen): unstable at room temperature

Compound: Nc1ccc(C(=O)NCC(=O)O)cc1 [PAH, p-aminohippurate]
extracted from the renal arterial plasma in a single pass through the renal parenchyma ([2]; in vivo): ~90%

Compound: O=C(O)CNC(=O)c1ccc(NC(=O)CN(CC(=O)O)CC(=O)O)cc1 [PAHIDA, p-[(biscarboxymethylaminomethyl)carbamino]hippuric acid]
clearance relative to OIH [2]: less than 50%

Compound: O=C([O-])CN=C([O-])CN=C([O-])CN=C([O-])C[S-].[O-2].[Tc+4] [Tc-99m-MAG3, ^99mTc-mercaptoacetyltriglycine]
plasma protein binding [3]: very high | clearance relative to OIH [2]: 50-60% | injected dose found in the kidneys ([2]; a few minutes post injection): 1-2%

Compound: Bis(3,4-dimethoxyphenyl-2-pyrrolylthionato) [99g Tc]oxotechnetium [compound 8]
stability towards oxidation [1]: stable towards oxidation
